Results from patent publication US20240342137A1 (priority 2023, published 2024).
Values after ≈ are worked out from the molar mass of the structure shown. Like-named read-outs stand apart in the source and are kept apart here.

Tests used:
[1] = format: physicochemical; settings: pH 6
alpha-2 adrenoceptors = molecular target: T1, alpha-2 adrenoceptors; settings: cited from earlier work; for IC50: read-out: half-maximal inhibitory concentration
T1 construct: rows headed: Alpha-2 Ki; other: [3H]clonidine displacement, brain membrane; other: alpha-2; lower sensitivity compared to atipamezole; other: alpha-2, vs atipamezole

alpha-1 adrenoceptors = settings: cited from earlier work
[2] = system: other neurotransmitter receptors including I2 and 5-HT; settings: cited from earlier work
[3] = system: other adrenergic, opioid or GABA (Gamma-AminoButyric Acid class) sedative and analgesic agents; settings: cited from earlier work
[4] = system: xylazine sedative effects; settings: in vivo; cited from earlier work
physchem = settings: water
[5] = human, in vivo, cited from earlier work
[6] = human, in vivo, 20 mg, cited from earlier work
[7] = human, in vivo; cited from earlier work

In the case of CCC1(c2cnc[nH]2)Cc2ccccc2C1 [Atipamezole, 4-(2-ethyl-2,3-dihydro-1H-inden-2-yl)-1H-imidazole], the “final atipamezole concentration when fully dissolved” value [1] is given as 375.8 mM, the Ki (alpha-2 adrenoceptors) is given as 1.6 nM and the IC50 (alpha-2 adrenoceptors) is given as 1.6 nM. For the same compound, the Ki (alpha-1 adrenoceptors) was 13300 nM, the “effect on other neurotransmitter receptors including I2 and 5-HT” value [2] was “Negligible or no effect on other neurotransmitter receptors including I2” and the “effect on other adrenergic, opioid or GABA sedative and analgesic agents” value [3] was “No effect on other adrenergic, opioid or GABA (Gamma-AminoButyric”. For the same compound, the “breathing rate reversal of xylazine sedative effects” value [4] was “Rapid breathing rate reversal of xylazine sedative effects within a few”, the “concentrations of atipamezole for restoring breathing rate” value [4] was 10 to 20 ng/mL and the solubility (physchem) was roughly 70 µg/mL (≈ 330 µM). For the same compound, the T1/2 ([5]; iv, 15 ug/kg) was 2.04 h, the Tmax ([5]; iv, 15 ug/kg) was 0.25 h and the T1/2 ([5]; iv, 50 ug/kg) was 1.92 h. The T1/2 ([5]; iv, 150 ug/kg) was 1.83 h, the elimination half-life ([5]; iv) was “approximately 2 hour” and the elimination half-life [5] was “Short elimination half-life (~2 h in humans) improving safety”. The AUC [6] was 85 ng·h/mL, the Cmax [6] was 23 ng/mL and the T1/2 [6] was 2.0 h. The Tmax [6] was 0.76 h, the AUC ([6]; iv) was 231 ng·h/mL and the Cmax ([6]; iv) was 145 ng/mL. The T1/2 ([6]; iv) was 1.8 h, the AUC ([6]; po) was 4.2 ng·h/mL and the Cmax ([6]; po) was 1.2 ng/mL. The T1/2 ([6]; po) was 2.0 h, the Tmax ([6]; po) was 0.82 h and the “increase in heart rate and blood pressure” value [7] was 14-17 mmHg (which may benefit those who are under deep respiratory. The “safety in humans by dose” value [7] was “safe up to 100 mg dose” and the “untoward or Severe Adverse Event (SAE)” value [7] was “At 30-100 mg/dose in human with no major untoward or Severe Adverse”.

For c1ccc2c(c1)OCC(C1=NCCN1)O2 (stereo not drawn) [Idazoxan], the Ki (alpha-2 adrenoceptors) is listed as 148 nM, the IC50 (alpha-2 adrenoceptors) is listed as 148 nM and the Ki (alpha-1 adrenoceptors) is listed as 3960 nM.

In the case of COC(=O)[C@@H]1[C@H]2C[C@H]3c4[nH]c5ccccc5c4CCN3C[C@@H]2CC[C@@H]1O [Yohimbine], the Ki (alpha-1 adrenoceptors) is listed as 5130 nM.
